# In article PMC5766233, “Ternary copper(II) complex: NCI60 screening, toxicity studies, and evaluation of efficacy in xenograft models of nasopharyngeal carcinoma” (PLoS ONE, 2018):
# Key:
# CYP1A = experiment: Cytochrome P450 induction assay in rat primary hepatocytes, CYP1A; format: in vitro ADME; conditions: 1.0 μM, 3 days
# Excerpt: %Activity=(averagearearatiooftreated/averagearearatioofbasalcontrol)x100
# [1] = Cytotoxicity in rat primary hepatocytes (resazurin); conditions: male, Wistar, rat, freshly isolated rat primary hepatocytes
# NCI leukemia cell lines = conditions: cited from earlier work
# [2] = test system: BGC823 (gastric cancer cells) xenograft; set-up: method as in earlier work; conditions: cited from earlier work
# [3] = test system: NCI60 human cancer cell line panel; conditions: ref cisplatin NSC number 119875; cited from earlier work
molecule,measurement,setting,value
"Cc1ccc2cc3c(ccc4ccccc43)c3c2c1CC3 [3-Methyl cholanthrene, reference compound]",Fold induction CYP1A,CYP1A,10.9
same,"fold induction at 3 days, 1 µM","CYP1A; rat, rat primary hepatocytes, probe phenacetin (100 μM in HBSS)",> 10
"CC/C(=C(\c1ccccc1)c1ccc(OCCN(C)C)cc1)c1ccccc1 [Tamoxifen, reference compound]",IC50 at 72 h,[1],5.1 µM
O=C([O-])c1ccccc1C(=O)[O-].[Cu+2].c1cnc2c(c1)ccc1cccnc12 [[Cu(o-phthalate)(phenanthroline)]],sensitivity of most NCI leukemia cell lines,NCI leukemia cell lines,resistant
N.N.[Cl][Pt][Cl] [cisplatin],organ damage,[2]; 4 mg/kg,considerable damage to liver and kidney
same,"xenograft growth, compared with [Ru(dmb)2(salH)]PF6",[2]; 4 mg/kg,slightly less effective
same,GI50,[3],1.49 µM
[Ru(dmb)2(salH)]PF6,toxicity compared to cisplatin,[2]; 5 mg/kg,insignificant nephrotoxicity and nephrotoxicity
same,xenograft growth,[2]; 5 mg/kg,significantly suppressed
